Data from US10118947B2, “Modulation of structured polypeptide specificity” (BICYCLE THERAPEUTICS LIMITED, priority 2013, dated 2018).
Read-outs that look alike come from different tables or passages of the source. Numbered stars: 1 amine (or outer) side, 2 acyl side, 3 side chain; on linkers, the order of the positions; unused ones are H or OH. Bridge positions count the residues as written; N and C are the ends. Square brackets hold non-standard residues; d marks the D form. Peptide text beside a SMILES is read from it. TBMB = c1c(C[*:1])cc(C[*:3])cc1C[*:2]; hArg = N=C(N)NCCCC[C@H](N)C(=O)O; Aze = O=C(O)[C@@H]1CCN1

Columns and labels:
[1] = Plasma stability profiling Method #1 (MALDI-TOF, 35% plasma), human plasma; assay type: in vitro ADME; settings: MALDI TOF assay (Methods #1 and #2), t=0, 21 and 46 hrs
Experimental: A rapid plasma stability profiling assay was developed that employed mass spectrometric detection (MALDI-TOF, Voyager DE, Applied Biosystems) of the parent mass, until the time when the parent peptide mass was no longer observable. Specifically, 200 uM of peptide was incubated in the presence of 35% rat or human plasma (Sera labs, using citrate as anticoagulant) at 37 deg C., which was supplemented with 1×PBS (derived from a 10×PBS Stock, Sigma). […] Samples were frozen at −80 deg C. until the time of analysis. For mass spectrometric analysis that determines the approximate detection window of the peptide, the acetonitrile:H2O-diluted sample of a given time point was spotted directly (0.7 uL) onto the MALDI plate. Matrix (alpha-cyanocinnamic acid, Sigma, prepared as a saturated solution in 1:1 acetonitrile:water containing 0.1% trifluoroacetic acid) was layered over the sample (1 uL). At a similar laser intensity setting on the MALDI TOF, the time could then be determined until parent peptide was no longer detectable. It should be noted that this is a qualitative assay serves to detect relative changes in plasma stability.

[2] = Intravenous pharmacokinetics in Sprague Dawley rats; assay type: in vivo; settings: rat; for half-life: iv, 5.2 mg/kg
Experimental: Peptides were applied as intravenous boli in PBS-buffered solution at 1.02 mg/mL (containing 2.9% DMSO) at 5.2 mg/kg to Sprague Dawley rats, and serial blood samples were taken from each animal via temporary indwelling tall vein cannulae at 5, 10, 20, 30, 60, 120, and 240 minutes post dose, and transferred to EDTA tubes for plasma generation. Data was acquired for peptide “all D Ac-06-34-18” from 3 rats, for “Ac-(06-34-18) Phe2 Aze3 Tyr4 HArg5 Ala(ψCH2NH)6” from two rats, and for “Ac-(06-34-18) Phe2 Aze3 Tyr4 HArg5 D-Asp9” from two rats.
Plasma samples were then treated with 3 volumes of a 1:1 mixture of acetonitrile and methanol, precipitated proteins were removed by centrifugation, and the supernatant was analysed by UPLC-MS/MS.
Quantification for peptide content in the samples was by reference to a calibration line prepared in control rat plasma. Pharmacokinetic parameters were determined by non-compartmental analysis using the software package PK Solutions 2.0 from Summit Research Services.

[3] = Plasma stability profiling Method #1 (MALDI-TOF, 35% plasma), rat plasma; assay type: in vitro ADME; settings: for stability in rat plasma compared to wildtype peptide: MALDI TOF assay (Methods #1 and #2), t=0, 21 and 46 hrs
In short: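 Qualitative test: 200 µM peptide incubated at 37 °C in 35% rat or human citrated plasma supplemented with PBS, sampled at 0, 3, 24 h then daily up to 10 days. Parent mass tracked by MALDI-TOF; value is time until parent peptide no longer detectable.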

rat plasma Kallikrein [4] = target: T1, rat plasma Kallikrein (Rattus norvegicus, UniProt P14272); experiment: Functional enzyme inhibition assay with fluorogenic substrate Z-PheArg-AMC, rat plasma Kallikrein; assay type: biochemical; settings: Table 26b, loop 1 and loop 2 modified derivatives
T1 construct: polyhistidine tag (N, cleaved yes); proTEV cleavage site (pro-peptide linker) (N, cleaved yes); made in house; host or cells: HEK-293 (suspension-adapted)
Experimental: Functional enzyme assays were conducted in 10 mM Tris HCl, 150 mM NaCl, 10 mM MgCl2, 1 mM CaCl2) and 1 mg/mL BSA (all Sigma UK) pH7.4 at 25° C. in solid black 96 well plates. Briefly 26.5 pM human plasma Kallikrein (purchased from Stratech, UK) or 500 pM rat plasma Kallikrein (expressed and purified in house) were incubated in the absence or presence of increasing concentrations of test peptide for 15 minutes before addition of the fluorogenic substrate Z-PheArg-AMC (Enzo Lifesciences UK) to a final assay concentration of 100 μM in 4% DMSO. Release of AMC was measured using a Pherastar FS (BMG Labtech), excitation 360 nm, emission 460 nm. The rate of the linear phase of the reaction, typically 5 to 45 minutes, was calculated in MARS data analysis software (BMG labtech). The rate was then used to calculate the IC50 and Ki in Prism (GraphPad). A four parameter inhibition non-linear regression equation was used to calculate the IC50.
Peptides were dissolved as the TFA-salts in their powder form, and stock solutions were usually prepared in water. All solutions were centrifuged and filtered ([…] syringe filters) prior absorption measurement at 280 nm. Extinction coefficients were calculated based on the Trp/Tyr content of the peptide, and that of TMB (the TMB core, when contained in a peptide, has an ε of ˜300 M^−1cm^−1). For peptides containing non-natural amino acids with suspected chromophoric properties (i.e. NorHar, 4PhenylPro, 3Pal, 4Pal, Tic, 4GuanPhe, 4,4-BPAI, 3,3-DPA, 1NAI, 2NAI, 4BenzylPro, Ind) concentrations were determined by weighing the powder and dissolving the peptide in a defined quantity of water.

human plasma Kallikrein [5] = target: T2, human plasma Kallikrein (Homo sapiens, UniProt P03952); experiment: Functional enzyme inhibition assay with fluorogenic substrate Z-PheArg-AMC, human plasma Kallikrein; assay type: biochemical; settings: for F (Kivar/KiWT): ratio of Ki to wild type
T2 construct: purchased Stratech, UK
In short: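 Human plasma kallikrein at 26.5 pM was preincubated 15 minutes with test peptide in Tris/NaCl/MgCl2/CaCl2/BSA buffer pH7.4 at 25° C, then Z-PheArg-AMC added to 100 μM final in 4% DMSO.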

[6] = Quantitative plasma stability Method #3 (LC-MS, 95% plasma), rat plasma; assay type: in vitro ADME; settings: for half-life at 5 uM: rat, plasma
Experimental: (§1) To obtain plasma stability quantitatively, peptide stock solutions (1 mM in DMSO) were shipped to Biofocus, UK, who performed the analysis. Peptides were diluted to 100 uM with water, and diluted 1:20 in plasma (5 uM final concentration, with the plasma at 95%), sampled as appropriate, precipitated as above, and quantified using a Waters Xevo TQ-MS.

[7] = Table 1; Method #3; cited from earlier work
human plasma Kallikrein [8] = target: T2, human plasma Kallikrein; settings: Table 1, as disclosed in PCT/EP2012/069898; cited from earlier work
rat plasma Kallikrein [9] = target: T1, rat plasma Kallikrein
[10] = Quantitative plasma stability Method #3 (LC-MS, 95% plasma), human plasma; assay type: in vitro ADME; settings: Table 2, ex vivo human plasma, read-out: Human Plasma Stability (t½ in hrs) (converted)
Experimental: as §1

[11] = Table 1; Method #1; cited from earlier work
[12] = Plasma stability / fragment profiling Method #2 (MALDI-TOF, 95% plasma), human plasma; assay type: in vitro ADME
In short: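 Peptide at 50 uM final in 95% human plasma without PBS; timed samples frozen at −80 °C, then extracted with 1:1 acetonitrile:methanol. Supernatant mixed with 30 mM ammonium bicarbonate and analysed by MALDI-TOF; qualitative fragment profiling of relative stability over time.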

human PK (hPK) = human PK (hPK) (Homo sapiens, UniProt P03952); settings: cited from earlier work
factor XIa (hfXIa) = factor XIa (hfXIa) (Homo sapiens, UniProt P03951); settings: highest concentration tested (10 μM); cited from earlier work
rat PK = rat PK (Rattus norvegicus, UniProt P14272); settings: highest concentration tested (10 μM); cited from earlier work
thrombin = thrombin (Homo sapiens, UniProt P00734); settings: highest concentration tested (10 μM); cited from earlier work
[13] = Sprague Dawley, plasma, intravenous bolus 5.2 mg/kg, read-out: elimination half-life
[14] = Sprague Dawley, plasma, intravenous, read-out: t1/2 elimination

T2 sequence (P03952 20-638): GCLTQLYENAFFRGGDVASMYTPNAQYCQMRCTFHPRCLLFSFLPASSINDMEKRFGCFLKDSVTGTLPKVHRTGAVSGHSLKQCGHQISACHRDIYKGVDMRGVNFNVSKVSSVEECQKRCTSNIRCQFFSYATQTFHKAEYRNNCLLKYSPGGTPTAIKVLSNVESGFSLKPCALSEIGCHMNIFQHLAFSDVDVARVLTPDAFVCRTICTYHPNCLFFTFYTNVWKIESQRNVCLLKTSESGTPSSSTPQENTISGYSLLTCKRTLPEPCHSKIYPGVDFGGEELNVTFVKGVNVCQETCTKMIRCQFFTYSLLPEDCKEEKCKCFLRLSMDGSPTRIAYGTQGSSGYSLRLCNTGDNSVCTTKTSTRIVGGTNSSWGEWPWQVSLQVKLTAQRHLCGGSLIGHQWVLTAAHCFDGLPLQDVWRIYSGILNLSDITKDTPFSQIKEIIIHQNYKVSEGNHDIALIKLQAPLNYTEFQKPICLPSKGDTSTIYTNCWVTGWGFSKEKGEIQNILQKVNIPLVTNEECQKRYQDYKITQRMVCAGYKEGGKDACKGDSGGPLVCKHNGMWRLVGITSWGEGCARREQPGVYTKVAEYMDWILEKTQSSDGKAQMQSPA
T1 sequence (P14272 391-638 limits assumed): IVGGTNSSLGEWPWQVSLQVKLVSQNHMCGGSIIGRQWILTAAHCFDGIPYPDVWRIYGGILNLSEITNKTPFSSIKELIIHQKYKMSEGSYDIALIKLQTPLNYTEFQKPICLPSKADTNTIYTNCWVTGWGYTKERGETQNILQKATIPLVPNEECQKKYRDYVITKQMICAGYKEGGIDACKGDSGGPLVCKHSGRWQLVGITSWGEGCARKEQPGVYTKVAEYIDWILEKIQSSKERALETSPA
Sequence of human PK (hPK) (P03952 20-638): as the sequence (P03952 20-638) above
Sequence of factor XIa (hfXIa) (P03951 388-625 limits assumed): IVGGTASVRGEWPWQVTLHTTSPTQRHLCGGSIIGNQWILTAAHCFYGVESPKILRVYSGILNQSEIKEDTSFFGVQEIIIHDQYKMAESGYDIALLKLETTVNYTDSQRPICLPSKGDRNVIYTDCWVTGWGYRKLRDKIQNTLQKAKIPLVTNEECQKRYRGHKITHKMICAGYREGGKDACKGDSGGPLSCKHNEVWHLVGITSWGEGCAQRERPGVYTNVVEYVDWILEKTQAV
Sequence of factor XIa (hfXIa) (P03951 19-387 partner limits assumed): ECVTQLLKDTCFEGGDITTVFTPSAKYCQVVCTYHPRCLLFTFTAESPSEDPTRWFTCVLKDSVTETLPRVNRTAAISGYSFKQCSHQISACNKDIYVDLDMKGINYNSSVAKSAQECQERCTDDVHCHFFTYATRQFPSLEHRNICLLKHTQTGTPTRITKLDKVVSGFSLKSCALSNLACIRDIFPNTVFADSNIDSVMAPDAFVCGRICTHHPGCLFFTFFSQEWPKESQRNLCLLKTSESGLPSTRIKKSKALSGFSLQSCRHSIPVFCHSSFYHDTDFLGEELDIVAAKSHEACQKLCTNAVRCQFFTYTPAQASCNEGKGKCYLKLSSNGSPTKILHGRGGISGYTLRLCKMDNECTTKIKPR
Sequence of rat PK (P14272 20-638): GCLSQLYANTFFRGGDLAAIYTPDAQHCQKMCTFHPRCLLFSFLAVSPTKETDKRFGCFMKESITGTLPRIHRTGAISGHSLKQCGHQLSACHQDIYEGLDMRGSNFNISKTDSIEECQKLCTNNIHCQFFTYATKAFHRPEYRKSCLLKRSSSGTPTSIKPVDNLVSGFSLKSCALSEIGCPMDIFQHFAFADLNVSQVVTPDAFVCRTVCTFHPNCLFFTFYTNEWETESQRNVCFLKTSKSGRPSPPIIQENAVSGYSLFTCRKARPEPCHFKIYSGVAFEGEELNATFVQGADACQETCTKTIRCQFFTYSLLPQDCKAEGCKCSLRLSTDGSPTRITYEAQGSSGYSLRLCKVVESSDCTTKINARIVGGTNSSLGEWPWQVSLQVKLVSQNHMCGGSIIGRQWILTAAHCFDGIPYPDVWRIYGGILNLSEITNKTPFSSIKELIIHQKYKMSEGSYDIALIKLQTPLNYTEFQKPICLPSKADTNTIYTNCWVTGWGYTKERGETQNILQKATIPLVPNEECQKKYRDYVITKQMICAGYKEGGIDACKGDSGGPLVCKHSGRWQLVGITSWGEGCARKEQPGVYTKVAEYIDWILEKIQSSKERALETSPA

## CC(=O)N[C@H]1CSCc2cc3cc(c2)CSC[C@H](NC(=O)[C@H](CCCCNC(=N)N)NC(=O)[C@H](Cc2ccc(O)cc2)NC(=O)[C@@H]2CCN2C(=O)[C@H](Cc2ccccc2)NC(=O)[C@H](CO)NC1=O)C(=O)N[C@@H](C)CN[C@@H](Cc1c[nH]cn1)C(=O)N[C@@H](CCC(N)=O)C(=O)N[C@@H](CC(=O)O)C(=O)N[C@@H](CC(C)C)C(=O)N[C@H](C(N)=O)CSC3
[1]
  stability in human plasma compared to wildtype peptide: remarkably enhanced stability
[2]; Sprague Dawley, plasma, intravenous bolus 5.2 mg/kg
  clearance: 5.8 mL/min/kg
[2]; [13]
  half-life: 48 min
[2]; [14]
  half-life: 48 min
[2]; intravenous
  Clearance based on AUC0-∞: 6.2 mL/min/kg
  Volume of distribution based on AUC0-∞: 0.44 L/kg
[3]
  stability in rat plasma compared to wildtype peptide: remarkably enhanced stability

## CC(=O)N[C@H]1CSCc2cc3cc(c2)CSC[C@H](NC(=O)[C@H](CCCCNC(=N)N)NC(=O)[C@H](Cc2ccc(O)cc2)NC(=O)[C@@H]2CCN2C(=O)[C@H](Cc2ccccc2)NC(=O)[C@H](CO)NC1=O)C(=O)N[C@@H](CC(C)C)C(=O)N[C@@H](Cc1c[nH]cn1)C(=O)N[C@@H](CCC(N)=O)C(=O)N[C@H](CC(=O)O)C(=O)N[C@@H](CC(C)C)C(=O)N[C@H](C(N)=O)CSC3 (Ac-CSF[Aze]Y[hArg]CLHQ[dD]LC-NH2; linker 1-7-13 via TBMB)
[1]
  stability in human plasma compared to wildtype peptide: remarkably enhanced stability
[2]; [13]
  half-life: ~27 min
[2]; [14]
  half-life: 27 min
Rat plasma Kallikrein [4]
  Ki: 14 nM
Human plasma Kallikrein [5]; Table 26b, loop 1 and loop 2 modified derivatives, read-out: Ki (nM) (human kallikrein)
  Ki: 0.9 nM
[3]
  stability in rat plasma compared to wildtype peptide: remarkably enhanced stability

## CC(=O)N[C@H]1CSCc2cc3cc(c2)CSC[C@H](NC(=O)[C@H](Cc2ccc(NC(=N)N)cc2)NC(=O)[C@H](C)NC(=O)[C@@H]2CCCN2C(=O)[C@H](Cc2c[nH]c4ccccc24)NC(=O)[C@H](CO)NC1=O)C(=O)N[C@@H](CC(C)C)C(=O)N[C@@H](Cc1c[nH]cn1)C(=O)N[C@@H](CCC(N)=O)C(=O)N[C@@H](CC(=O)O)C(=O)N[C@@H](CC(C)C)C(=O)N[C@H](C(N)=O)CSC3 [Ac-(06-34-18) 4GuanPhe5]
[6]; Table 15, method #3, read-out: t1/2 (hrs) in rat plasma (converted)
  half-life at 5 uM: 2.8 h
[7]
  t1/2 (hrs) in rat plasma: 2.8 h
Human plasma Kallikrein [5]
  reduction in potency/affinity compared to wildtype: 2 fold
Human plasma Kallikrein [5]; Table 15, read-out: Ki (nM) (human kallikrein)
  Ki: 0.34 nM
Human plasma Kallikrein [8]
  Ki: 0.34 nM
Rat plasma Kallikrein [9]; Table 1; read-out: Ki (nM) (rat kallikrein); cited from earlier work
  Ki: 3 nM

## CC(=O)N[C@H]1CSCc2cc3cc(c2)CSC[C@H](NC(=O)[C@H](CCCNC(=N)N)NC(=O)[C@H](Cc2ccc(O)cc2)NC(=O)[C@@H]2CCCN2C(=O)[C@H](Cc2ccccc2)NC(=O)[C@H](CO)NC1=O)C(=O)N[C@@H](CC(C)C)C(=O)N[C@@H](Cc1c[nH]cn1)C(=O)N[C@@H](CCC(N)=O)C(=O)N[C@@H](CC(=O)O)C(=O)N[C@@H](CC(C)C)C(=O)N[C@H](C(N)=O)CSC3 [Ac-(06-34-18) Phe2 Tyr4] (Ac-CSFPYRCLHQDLC-NH2; linker 1-7-13 via TBMB)
[10]
  half-life at 5 uM: 84 min
[6]; Table 2, ex vivo rat plasma, Method #3
  Rat Plasma Stability (t½ in hrs): 54 min
[6]; Table 23, method #3
  t1/2 (hrs) in rat plasma: 0.9 h
[6]; method #3, read-out: half-life in rat plasma (t1/2) (converted)
  half-life at 5 uM: 0.9 h
[11]
  Observable in rat plasma, for days: 2 days
[7]
  t1/2 (hrs) in rat plasma: 0.9 h
Human plasma Kallikrein [5]; Ki (nM) (human kallikrein), Table 26a, loop2 stability enhanced candidates
  Ki: 0.9 nM
Human plasma Kallikrein [5]; Ki (nM) human Kai, Table 2
  Ki: 0.42 nM
Human plasma Kallikrein [5]; Table 3a
  F (Kivar/KiWT): 1
Human plasma Kallikrein [5]; Table 24b
  F (Kivar/KiWT): 1
Rat plasma Kallikrein [9]; read-out: Ki (nM) (rat kallikrein); Table 1; cited from earlier work
  Ki: 7.6 nM
[3]; Table 21, method #1
  Observable in rat plasma, for days: 2 days
[3]; Table 23, comparative stabilities estimated according to method #1
  Observable in rat plasma, for days: 2 days
[12]; Table 3a, peptide fragments observed after incubation in human plasma
  Fragments (human plasma): -LHQ
[12]; running text and figure legends
  degradation / fragments in human plasma (in words): fragments with His7-Gln8, Leu6, and Leu6-His7-Gln8 removed

## H-ACSDRFRNCPADEALCG-NH2 [PK15]
Human PK (hPK); Heinis et al. 2009, read-out: Kl human PK (hPK)
  Ki: 3 nM
Human PK (hPK); background, read-out: IC50 binding constant for human Kallikrein
  IC50: 1.7 nM
Factor XIa (hfXIa)
  inhibition of factor XIa (hfXIa): did not inhibit
Rat PK
  inhibition of rat PK: did not inhibit
thrombin
  inhibition of thrombin: did not inhibit
